Source: ChEMBL document CHEMBL1152554, “Synthesis and pharmacological evaluation of 6-naltrexamine analogs for alcohol cessation” (Bioorg Med Chem, 2009)
Activity calls are given as the source filed them. The calls are words filed in the database; no cut-off is given here.

Legend:
[1] = mouse, microsomes
Liver microsomes = conditions: human
Nociceptin receptor [2] = target: T1, Nociceptin receptor (Homo sapiens, UniProt P41146); test: biochemical
in vitro = conditions: mouse, liver microsomes
Nociceptin receptor [3] = target: T1, Nociceptin receptor; test: Activity at NOP expressed in HEK293 cells assessed as stimulation of [35S]GTPgammaS binding relative to basal level; assay type: functional, cell-based
Rattus norvegicus = test: Inhibition of saccharin intake in sc dosed Wistar rat by saccharin-self administration test; assay type: functional, organism-based
Nociceptin receptor [4] = target: T1, Nociceptin receptor; test: biochemical; remark: listed apart in the source
[5] = Ratio of drug level in brain to plasma in Wistar rat at 400 ug/kg, po after […]; assay type: ADME, organism-based; conditions: 0.4 mg/kg, read-out: BPR
Nociceptin receptor [6] = target: T1, Nociceptin receptor; test: biochemical; remark: listed apart in the source

T1 sequence (P41146 whole entry): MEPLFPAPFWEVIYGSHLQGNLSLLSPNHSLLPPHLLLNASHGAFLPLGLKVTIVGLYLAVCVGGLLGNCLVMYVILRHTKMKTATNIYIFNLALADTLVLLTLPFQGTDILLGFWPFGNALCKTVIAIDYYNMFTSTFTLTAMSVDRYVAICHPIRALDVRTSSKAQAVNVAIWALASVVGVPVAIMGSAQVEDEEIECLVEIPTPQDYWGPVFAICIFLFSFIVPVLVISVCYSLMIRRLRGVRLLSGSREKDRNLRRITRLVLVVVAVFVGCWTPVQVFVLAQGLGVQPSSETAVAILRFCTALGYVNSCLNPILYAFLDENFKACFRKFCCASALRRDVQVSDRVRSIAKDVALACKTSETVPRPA

SMILES	Stability [1]	Stability (Liver microsomes)	EC50 (Nociceptin receptor [2]) [µM]	also measured
CC(C)(C)c1ccc(C(=O)N[C@@H]2CC[C@@]3(O)[C@H]4Cc5ccc(O)c6c5[C@@]3(CCN4CC3CC3)[C@H]2O6)cc1.O=C(O)C(=O)O	Stable	–	–	–
Cc1ccc(C(=O)N[C@@H]2CC[C@@]3(O)[C@H]4Cc5ccc(O)c6c5[C@@]3(CCN4CC3CC3)[C@H]2O6)cc1.O=C(O)C(=O)O	Stable	Stable	–	–
O=C(N[C@@H]1CC[C@@]2(O)[C@H]3Cc4ccc(O)c5c4[C@@]2(CCN3CC2CC2)[C@H]1O5)c1ccc(C(F)(F)F)cc1.O=C(O)C(=O)O	Stable	Stable	–	–
O=C(N[C@@H]1CC[C@@]2(O)[C@H]3Cc4ccc(O)c5c4[C@@]2(CCN3CC2CC2)[C@H]1O5)c1ccc(Cl)cc1	–	–	> 10	–
C=C1CC[C@@]2(O)[C@H]3Cc4ccc(O)c5c4[C@@]2(CCN3CC2CC2)[C@H]1O5	–	–	–	half-life (in vitro): 20 min
Oc1ccc2c3c1O[C@H]1c4[nH]c5ccccc5c4C[C@@]4(O)[C@@H](C2)N(CC2CC2)CC[C@]314	–	–	–	Emax (Nociceptin receptor [3]): 109%
O=C(N[C@@H]1CC[C@@]2(O)[C@H]3Cc4ccc(O)c5c4[C@@]2(CCN3CC2CC2)[C@H]1O5)c1ccc(Br)cc1.O=C(O)C(=O)O	–	Stable	> 10	inhibition (Rattus norvegicus): Active; Ki (Nociceptin receptor [4]): > 10 µM
O=C(O)C(=O)O.O=[14C](N[C@@H]1CC[C@@]2(O)[C@H]3Cc4ccc(O)c5c4[C@@]2(CCN3CC2CC2)[C@H]1O5)c1ccc(Br)cc1	–	–	–	Kp at […] [5]: 2.3
O=C(N[C@@H]1CC[C@@]2(O)[C@H]3Cc4ccc(O)c5c4[C@@]2(CCN3CC2CC2)[C@H]1O5)c1ccc(Cl)c(Cl)c1.O=C(O)C(=O)O	Stable	–	> 10	EC50 (Nociceptin receptor [6]): 0.1 nM
